# In patent US20240398738A1, “MANIPULATION OF THE RETINOIC ACID SIGNALING PATHWAY” (THE REGENTS OF THE UNIVERSITY OF CALIFORNIA, priority 2017, published 2024):
# “Also recorded” adds a separate entry of the source.
# Assays:
# RGCs in WT retina = assay: YO-PRO-1 loading assay (dye permeability of RGCs) in WT retina after intravitreal injection; type: in vivo, mouse
# Description: (§1) Intravitreal Injections. Before injection, mice were anesthetized with isoflurane (2%) and their pupils were dilated with tropicamide (1%) and phenylephrine (2.5%). Proparacaine (0.5%) was used as a topical analgesic. Genteal was applied under a glass coverslip to keep the cornea lubricated. An incision was made through the sclera below the ora serrata with a 30G needle and ˜1 μl of solution was injected into the vitreous with a blunt-ended 33G Hamilton syringe. After injection, the antibiotic tobramycin (0.3%) was applied to the eye. Final drug concentrations after intravitreal injection were: all-trans retinoic acid (ATRA, 100 nM), liarozole (100 μM), diethylaminobenzaldehyde (DEAB, 20 μM), citral (50 μM), BMS-493 (500 nM), and retinaldehyde (1 μM). The above values correspond to the final concentration in the eye after injecting 1 μl of drug accounting for a 5-fold dilution. An injection of PBS including 1% DMSO was used as vehicle control.
# (§2) Yo-PRO-1 Loading Assay. After dissection, retinas were cut into thirds and mounted on a windowed nitrocellulose filter paper. Retinas were treated with 200 nM Yo-PRO-1 (Life Technologies) in oxygenated ACSF for 15 minutes, followed by treatment and then treated with nuclear ID (Enzo Life Sciences) at a 1:500 dilution for 3 minutes. ACSF was perfused continuously at 3 ml/min for a period of 5 minutes to wash away excess dye. In experiments employing TNP-ATP (200 μm), the retinas was pretreated with the compound for ten minutes before beginning YO-PRO-1 treatment.
# (§3) Image analysis. All image analysis was performed using ImageJ or Fiji software (55,56). Yo-PRO-1 loading assay, ROIs were manually selected using the nuclear-ID channel based upon morphological characteristics. This was performed after computationally flattening the retina by performing a maximum Z projection onto a single plane. Following this, a background subtraction was performed with a rolling radius of 50 pixels. Cells identified as vascular endothelial cells or pericytes were not included in the analysis. This was confirmed using transillumination. A threshold for YO-PRO-1 loading was established by measuring the level of autofluorescence of untreated retinas in each channel and finding a baseline value with +2SD being the threshold for a YO-PRO-1 positive cell. Nuclear-ID was used to count the total number of cells within a field of view. The percentage of cells above the threshold was then calculated for comparison. For analysis of RARE double reporter virus assay, ROIs were manually selected on the RFP channel first and then superimposed to the GFP channel. Single cell values for both RFP and GFP were filtered by using a RFP minimum threshold established in naive unlabeled retinas.
# (§4) Injections. Intravitreal injections: Adult mice and rats were intravitreally injected with drugs or viruses. Before injection, animals were anesthetized with isoflurane (2%) and their pupils were dilated with tropicamide (1%) and phenylephrine (2.5%). Proparacaine (0.5%) was used as a topical analgesic. Genteal was applied under a glass coverslip to keep the cornea lubricated. An incision was made through the sclera below the ora serrata with a 30G needle. Solutions were injected into the vitreous with a blunt-ended 33G Hamilton syringe. After injection, the antibiotic tobramycin (0.3%) was applied to the eye. Final drug concentrations (after 5-fold dilution in the vitreous) were: 100 nM all-trans retinoic acid (ATRA), 100 μM liarozole (24), 20 μM diethylaminobenzaldehyde (DEAB) (28,93), 50 μM citral, 500 nM BMS 493 (85), 1 μM retinaldehyde, and vehicle comprising of 1× phosphate buffered saline (PBS) containing 1% dimethyl sulfoxide (DMSO). Intravitreal injections were performed using AAV2 serotype only. WT and rd1 mice were injected with the RAR-reporter virus or the RARDN virus, at age 1-1.5 month-old. WT and s334ter rats were injected with the RAR-reporter virus at age 3-4 month-old. Final volume of injections was 1-1.5 μL for mice and 5 μL for rats. […]
# [1] = tested on: retinal neurons (photoreceptors); assay: TUNEL assay after intravitreal injection; type: in vivo, mouse; settings: WT, 5-6 days after intravitreal injection, ATRA 100 nM
# Description: Immunolabeling and TUNEL assay. S334ter rat retinas infected with the RARE double reporter were dissected, fixed and frozen, as previously described (54). The tissue was cut in 14 μm thick cross-sections using a Leica cryostat. Immunocytochemical solution (ICC) was composed of standard 1×PBS (Gibco), 2.5% BSA (Sigma) and 0.1% Triton (Sigma). The tissue was blocked using ICC solution supplemented with unconjugated rabbit anti-mouse secondary antibody (Life Technologies) at RT for 1 hr. Slides were incubated with primary mouse anti-GFP antibody (#JL8, Clontech), with no RFP cross-reactivity, at 4° C. ON. An Alexa Fluor-488 conjugated goat anti-mouse secondary antibody (Life Technologies) was used at RT for 1 hr in the dark. The same procedure was carried out for detection of RARβ in mouse retinas following injection of vehicle or ATRA. Slides were incubated with a primary rabbit anti-RARβ antibody (ab53161, Abcam) and detected using an Alexa Fluor-488 conjugated goat anti-rabbit secondary antibody (Life Technologies). TUNEL assay (In Situ Cell Death Detection Kit, Roche) was carried out per manufacturer's instructions. Retinas were collected 5-6 days following injection with vehicle, ATRA, or ATRA and Liarozole.
# TUNEL assay. TUNEL assay (In Situ Cell Death Detection Kit, Roche) was carried out per manufacturer's instructions. […]
# RAR = RAR dual fluorescent reporter (RARE-SV40-GFP / CMV-RFP) in HEK293 cells; type: cell-based, human
# RGCs in rd1 retina = assay: YO-PRO-1 loading assay (dye permeability of RGCs) in rd1 retina after intravitreal injection; type: in vivo, mouse
# Description: as §1, §2, §3, §4
SMILES,"increase of YO-PRO-1 labeling (RGCs in WT retina; WT mice, 3-7 days after intravitreal injection, versus vehicle) [fold]","percentage of YO-PRO-1 positive cells (RGCs in WT retina; WT mice, intravitreal injection 3-7 days before, ATRA 100 nM, liarozole 100 μM, retinaldehyde 1 μM, DEAB 20 μM, mean±SEM) [%]","reversibility of ATRA-induced YO-PRO-1 loading (RGCs in WT retina; WT retina, intravitreal ATRA 100 nM)","Yo-Pro-1 labeling of WT-RGCs, result in words (RGCs in WT retina; WT retina, substance injected intravitreally alone)",cell death / toxicity (TUNEL) [1],"GFP expression of the RAR reporter (RAR; HEK293, ATRA 1 μM, 48 hrs)","increase in GFP to RFP ratio (RAR; HEK293, different doses and times of ATRA, with 100 μM liarozole)","Yo-Pro-1 labeling of rd1-RGCs, result in words (RGCs in rd1 retina; rd1, intravitreal injection, compared to vehicle-injected)","percentage of YO-PRO-1 positive cells (fraction of RGC nuclei labeled) (RGCs in rd1 retina; rd1 mice, intravitreal injection, measured 3-7 days after, BMS-493 500 nM, DEAB 20 uM, citral 50 uM, mean±SEM) [%]","percentage of YO-PRO-1 positive cells, ATRA-induced labeling with blocker (RGCs in WT retina; WT mice injected with ATRA, TNP-ATP bath-applied ex vivo or BMS-493 co-injected, mean±SEM) [%]"
"CC1=C(/C=C/C(C)=C/C=C/C(C)=C/C(=O)O)C(C)(C)CCC1 [ATRA, all-trans retinoic acid]",2,15.80±3.10,reversible; also recorded: disappeared 6 weeks after injection,significantly increased the fraction of cells incorporating Yo-Pro-1,does not cause retinal neuron degeneration; also recorded: non-toxic; also recorded: no cell death,significant increase in GFP expression only following ATRA treatment; also recorded: induced GFP expression,dose- and time-dependent,–,–,–
CC1(C)CC=C(C#Cc2ccccc2)c2cc(/C=C/c3ccc(C(=O)O)cc3)ccc21 [BMS-493],–,–,–,–,–,–,–,reduced Yo-Pro-1 labeling in rd1 to WT levels,6.13±1.43,5.74±1.54
